From publication PMC13107563 (Protein & Cell, 2025)
pEC50: −log10 of the molar value. No end group written: not given here.

How the values were obtained:
[1] = target: T1, NPFFR2 T220A (Homo sapiens, UniProt Q9Y5X5, T322A); experiment: GloSensor cAMP accumulation assay, NPFFR2 T220A; assay type: cell-based; details: Gi signaling, three independent experiments in triplicates
T1 construct: expressed in transfected cells; host or cells: HEK293T (described for NPFFR1 only)

[2] = target: T2, NPFFR2 (WT) (Homo sapiens, UniProt Q9Y5X5); experiment: GloSensor cAMP accumulation assay, WT NPFFR2 (Gi signaling); assay type: cell-based; details: WT NPFFR2 (reference, 100 %WT), three independent experiments in triplicates
T2 construct: expressed in transfected cells; host or cells: HEK293T (described for NPFFR1 only)
T2 sequence (Q9Y5X5 103-522): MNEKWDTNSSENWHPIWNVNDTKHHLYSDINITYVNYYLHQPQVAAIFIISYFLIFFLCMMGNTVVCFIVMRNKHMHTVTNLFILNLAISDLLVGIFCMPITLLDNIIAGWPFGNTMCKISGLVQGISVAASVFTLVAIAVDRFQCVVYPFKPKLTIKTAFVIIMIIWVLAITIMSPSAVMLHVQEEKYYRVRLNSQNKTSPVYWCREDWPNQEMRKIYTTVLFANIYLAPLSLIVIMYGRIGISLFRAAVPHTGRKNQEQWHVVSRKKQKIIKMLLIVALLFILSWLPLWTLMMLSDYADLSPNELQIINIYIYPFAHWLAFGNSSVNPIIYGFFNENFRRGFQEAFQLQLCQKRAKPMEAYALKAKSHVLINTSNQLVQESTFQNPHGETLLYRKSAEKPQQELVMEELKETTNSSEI

[3] = tested on: NPFFR1 / NPFFR2; details: NPFFR1 vs NPFFR2; ref Quillet et al., 2016; cited from earlier work
From the text: NPFFR1 primarily couples to inhibitory Gi/o proteins and regulates di ...

T1 sequence (Q9Y5X5 103-522 T322A): as the sequence (Q9Y5X5 103-522) above, with T220A counted along it

| Compound | pEC50 [1] | Emax [2] [%] | receptor preference [3] |
| --- | --- | --- | --- |
| CC(C)C[C@H](NC(=O)[C@H](CC(N)=O)NC(=O)[C@@H]1CCCN1C(=O)[C@@H](N)C(C)C)C(=O)N1CCC[C@H]1C(=O)N[C@@H](CCC(N)=O)C(=O)N[C@@H](CCCNC(=N)N)C(=O)N[C@@H](Cc1ccccc1)C(N)=O [RFRP-3, RF-amide related peptide-3] | < 4.52 | 100 | – |
| Neuropeptide AF (AGEGLNSQFWSLAAPQRF; ends and bridges not checked; UniProt O15130 93-110, looked up) [NPAF, peptide derived from pro-NPFFA] | – | – | prefer binding to NPFFR2 |
